From patent US20240058460A1, “METHODS AND COMPOUNDS FOR MODULATING HUNTINGTON'S DISEASE” (Design Therapeutics, Inc., priority 2022, published 2024) come the findings set out here.

Structures are written as SMILES. Bounds are passed on as bounds.

Common to all, as to assay type: cell-based
Assay [1] relates to human HTT C allele (SNP rs362331C/T) mRNA in GM09197 fibroblasts. The assay is described as follows: HTT mRNA, allele-specific RT-PCR in GM09197 fibroblasts, C allele. To be noted: for GM 09197 E min 48 Hr C Allele (%): lowest % HTT observed at 0.5 nM to 1000 nM compound; for IC50: Homo sapiens, Fibroblast, 48 hr, C allele HTT mRNA normalized to GAPDH, relative to vehicle. As for the experimental part: (§1) Molecular Biology Toolkit: • qPCR primer probe sets: • RNA input normalization was assessed utilizing human glyceraldehyde 3-phosphate dehydrogenase (hGAPDH) TaqMan assay (ThermoFisher cat #4351370) or Human Cyclophillin ([…]) TaqMan assay (ThermoFisher cat #4351372) • Total HTT detection was assessed utilizing human Htt TaqMan assay (ThermoFisher cat #4331182) • Allele-specific detection of human HTT expression in HD cells containing the SNP rs362331C/T (Exon 50): for each assay, allele-specific probes to detect the SNP variant contained locked nucleic acid bases to improve allele discrimination, as compared to unmodified DNA probes. • 362331-F (331 forward primer) • 362331-R (331 reverse primer) • 362331-C probe: TCC CTC ATC+C+AC TGT GT • 362331-T probe: CTC+A+T+C+T+A+C TGT GT • qPCR was performed using Agpath ID one-step reverse transcriptase polymerase chain reaction (RT-PCR) reagent
(§2) Screening of HD molecules methods: GM09197 and/or GM04022 fibroblasts were cultured in T175 flasks incubated at 37° C. and 5% CO2. Once confluency was reached, the media was removed, the cells were washed with 1×PBS, and cells were dissociated using TrypLE™ Express Enzyme. Media was added to the enzyme and collected into a 15-mL conical tube and centrifuged at 500×g for 5 minutes to pellet the cells. Media and enzyme were aspirated using a serological pipette. Cells were resuspended in fresh media and counted using a Countess 3 Automated Cell Counter. Cells were plated at a density of 15,000 cells/well in a tissue culture-treated polystyrene 96-well dish and incubated at 37° C. and 5% CO2 overnight. The next day, media was removed using an 8-channel aspirator. 200 μL media/well are added back into the plate. The molecules are formulated to 1 mM and are dispensed using a Multidrop™ Pico 8 Digital Dispenser. After a 48-hour incubation with compounds, media was removed from plates, cells were washed with 1×PBS, and cells were lysed in 40 μL per well guanidinium thiocyanate buffer. RNA was isolated and purified in 382-well glass fiber column plates using chaotropic salts. Human mtHTT, wtHTT, and GAPDH mRNA were measured via RT-PCR using the ThermoFisher QuantStudio™ 7 Flex System in 384-well format. Results of HTT levels were normalized to GAPDH mRNA levels. Normalized HTT mRNA levels were expressed relative to vehicle-treated samples to assess fold change after molecule treatment.
(§3) Emin for each compound is the lowest % HTT concentration observed within a compound concentration of 0.5 nM to 1000 nM.

For assay [2], the system named is human HTT T allele (SNP rs362331C/T) mRNA in GM04022 fibroblasts. The assay is described as follows: HTT mRNA, allele-specific RT-PCR in GM04022 fibroblasts, T allele. To be noted: for IC50: Homo sapiens, Fibroblast, 48 hr, T allele HTT mRNA normalized to GAPDH, relative to vehicle; for GM04022 Emin 48 hr T Allele: lowest % HTT observed at 0.5 nM to 1000 nM compound. As for the experimental part:
as §1, §2, §3

In assay [3] the test system is human HTT C allele (SNP rs362331C/T) mRNA in GM04022 fibroblasts. The assay is described as follows: HTT mRNA, allele-specific RT-PCR in GM04022 fibroblasts, C allele. The following applies: for GM 04022Emin 48 hr C Allele: lowest % HTT observed at 0.5 nM to 1000 nM compound. Here is the method:
as §1
as §2, with “After a 48-hour incubation with compounds, media was removed from plates, cells were washed with 1×PBS, and cells were lysed in 40 μL per well guanidinium thiocyanate buffer. RNA was isolated and purified in 382-well glass fiber column plates using chaotropic salts.” left out, “Results of HTT levels were normalized to GAPDH mRNA levels. Normalized HTT mRNA levels were expressed relative to vehicle-treated samples to assess fold change after molecule treatment.” left out

Assay [4] concerns human HTT T allele (SNP rs362331C/T) mRNA in GM09197 fibroblasts. The assay is described as follows: HTT mRNA, allele-specific RT-PCR in GM09197 fibroblasts, T allele. To be noted: for IC50: Homo sapiens, Fibroblast, 48 hr, T allele HTT mRNA normalized to GAPDH, relative to vehicle; for Gm09197 Emin 48 hr T Allele (%): lowest % HTT observed at 0.5 nM to 1000 nM compound. Here is the method: as §1, §2, §3

Broadly, the IC50 is the point on the concentration scale where inhibition reaches its midpoint. A high value points to a need for much substance. Consider `Cn1cc(NC(=O)c2nc(NC(=O)CCNC(=O)c3cc(NC(=O)c4nccn4C)cn3C)cn2C)cc1C(=O)NCCCC(=O)Nc1cn(C)c(C(=O)NCCC(=O)Nc2cc(C(=O)Nc3cn(C)c(C(=O)NCCC(=O)NCCOCCOCCOCCOCCOCCOCCOCCOCCOCCOCCOCCOCCOCCOCCOCCOc4ccc(NC(=O)c5cc6c(-c7cc(S(C)(=O)=O)ccc7Oc7ccc(F)cc7F)cn(C)c(=O)c6[nH]5)cc4)n3)n(C)c2)n1` [Compound A-2], for which the “GM 09197 E min 48 Hr C Allele (%)” value in assay [1] is given as “A (A>90%)”. For the same compound, in assay [2], the IC50 was greater than 1 µM and the “GM04022 Emin 48 hr T Allele” value is given as “C (C<80%)”. Moreover, the “GM 04022Emin 48 hr C Allele” value in assay [3] was “A (A>90%)”. Also, in assay [4], the IC50 was 0.032 µM and the “Gm09197 Emin 48 hr T Allele (%)” value is on record as “C (C<80%)”.
Regarding `CC(=O)Nc1c(F)cc(C(=O)N[C@H]2CC[C@H](O)CC2)cc1O[C@@H](C)c1cccc(C(=O)NCCOCCOCCOCCOCCOCCOCCOCCOCCOCCOCCOCCOCCOCCOCCOCCNC(=O)CCNC(=O)c2nc(NC(=O)c3cc(NC(=O)CCNC(=O)c4nc(NC(=O)CCCNC(=O)c5cc(NC(=O)c6nc(NC(=O)CCNC(=O)c7cc(NC(=O)c8nccn8C)cn7C)cn6C)cn5C)cn4C)cn3C)cn2C)c1` [Compound A-32], the IC50 in assay [1] and in assay [4] was greater than 1 µM throughout.
With `Cc1sc2c(c1C)C(c1ccc(Cl)cc1)=N[C@H](CC(=O)Nc1ccc(OCCOCCOCCOCCOCCOCCOCCOCCOCCOCCOCCOCCOCCOCCOCCOCCNC(=O)CCNC(=O)c3nc(NC(=O)c4cc(NC(=O)CCNC(=O)c5nc(NC(=O)CCCNC(=O)c6cc(NC(=O)c7nc(NC(=O)CCNC(=O)c8cc(NC(=O)c9nccn9C)cn8C)cn7C)cn6C)cn5C)cn4C)cn3C)cc1)c1nnc(C)n1-2` [Compound A-45], in assay [1], the “GM 09197 E min 48 Hr C Allele (%)” value was “C (C<80%)” and the IC50 was greater than 1 µM. For the same compound, in assay [4], the IC50 was greater than 1 µM and the “Gm09197 Emin 48 hr T Allele (%)” value is “C (C<80%)”.
As for `C/C=C/Cn1cc(-c2cc(OC)c(C(=O)N3CCN(CCOCCOCCOCCOCCOCCOCCOCCOCCOCCOCCOCCOCCOCCOCCOCCNC(=O)CCNC(=O)c4nc(NC(=O)c5cc(NC(=O)CCNC(=O)c6nc(NC(=O)CCCNC(=O)c7cc(NC(=O)c8nc(NC(=O)CCNC(=O)c9cc(NC(=O)c%10nccn%10C)cn9C)cn8C)cn7C)cn6C)cn5C)cn4C)CC3)cc2OC)c2cc[nH]c2c1=O` [Compound A-76], in assay [1], the “GM 09197 E min 48 Hr C Allele (%)” value is “A (A>90%)” and the IC50 is greater than 1 µM. In assay [2], the IC50 was greater than 1 µM and the “GM04022 Emin 48 hr T Allele” value is on record as “A (A>90%)”. In addition, in assay [3], the “GM 04022Emin 48 hr C Allele” value is “A (A>90%)”. Also, the concentration for half-maximal inhibition (IC50) in assay [3] (Homo sapiens, Fibroblast, 48 hr, C allele HTT mRNA normalized to GAPDH, relative to vehicle) is greater than 1 µM. Further, in assay [4], the IC50 was greater than 1 µM and the “Gm09197 Emin 48 hr T Allele (%)” value was “A (A>90%)”.
In the case of `CCS(=O)(=O)Nc1ccc(Oc2ccc(F)cc2F)c(-c2cn(C)c(=O)c3[nH]c(C(=O)Nc4ccc(OCCOCCOCCOCCOCCOCCOCCOCCOCCOCCOCCOCCOCCOCCOCCOCCNC(=O)c5cc(NC(=O)c6nc(NC(=O)[C@H](N)CCNC(=O)c7cc(NC(=O)c8nc(NC(=O)CCNC(=O)c9cc(NC(=O)c%10nccn%10C)cn9C)cn8C)cn7C)cn6C)cn5C)cc4)cc23)c1` [Compound A-36], in assay [1], the “GM 09197 E min 48 Hr C Allele (%)” value is given as “A (A>90%)” and the IC50 was greater than 1 µM. In addition, in assay [4], the IC50 was greater than 1 µM and the “Gm09197 Emin 48 hr T Allele (%)” value was “A (A>90%)”.
`CCNC(=O)c1cc2c(-c3cc(S(C)(=O)=O)ccc3Oc3ccc(OCCOCCOCCOCCOCCNC(=O)CCNC(=O)c4nc(NC(=O)c5cc(NC(=O)CCNC(=O)c6nc(NC(=O)CCCNC(=O)c7cc(NC(=O)c8nc(NC(=O)CCNC(=O)c9cc(NC(=O)c%10nccn%10C)cn9C)cn8C)cn7C)cn6C)cn5C)cn4C)cc3F)cn(C)c(=O)c2[nH]1` [Compound A-55]: in assay [1], the “GM 09197 E min 48 Hr C Allele (%)” value is reported as “A (A>90%)” and the IC50 is greater than 1 µM. In addition, in assay [4], the IC50 was greater than 1 µM and the “Gm09197 Emin 48 hr T Allele (%)” value is “A (A>90%)”.
Regarding `Cc1sc2c(c1C)C(c1ccc(Cl)cc1)=N[C@@H](CC(=O)Nc1ccc(OCCOCCOCCOCCOCCOCCOCCOCCOCCOCCOCCOCCOCCOCCOCCOCCNC(=O)CCNC(=O)c3nc(NC(=O)c4cc(NC(=O)CCNC(=O)c5nc(NC(=O)NCCNC(=O)c6cc(NC(=O)c7nc(NC(=O)CCNC(=O)c8cc(NC(=O)c9nccn9C)cn8C)cn7C)cn6C)cn5C)cn4C)cn3C)cc1)c1nnc(C)n1-2` [Compound A-75], in assay [1], the “GM 09197 E min 48 Hr C Allele (%)” value is “A (A>90%)” and the IC50 was greater than 1 µM. Besides, in assay [4], the IC50 is greater than 1 µM and the “Gm09197 Emin 48 hr T Allele (%)” value is listed as “A (A>90%)”.
With `Cc1sc2c(c1C)C(c1ccc(Cl)cc1)=N[C@@H](CC(=O)Nc1ccc(OCCOCCOCCOCCOCCOCCOCCOCCOCCOCCOCCOCCOCCOCCOCCOCCNC(=O)CCNC(=O)c3nc(NC(=O)c4cc(NC(=O)CCNC(=O)c5nc(NC(=O)OCCNC(=O)c6cc(NC(=O)c7nc(NC(=O)CCNC(=O)c8cc(NC(=O)c9nccn9C)cn8C)cn7C)cn6C)cn5C)cn4C)cn3C)cc1)c1nnc(C)n1-2` [Compound A-73], in assay [1], the “GM 09197 E min 48 Hr C Allele (%)” value is given as “A (A>90%)” and the IC50 was greater than 1 µM. In assay [4], the IC50 is greater than 1 µM and the “Gm09197 Emin 48 hr T Allele (%)” value is “A (A>90%)”.
As to `CCS(=O)(=O)Nc1ccc(Oc2ccc(F)cc2F)c(-c2cn(C)c(=O)c3[nH]c(C(=O)Nc4ccc(OCCOCCOCCOCCOCCOCCOCCOCCOCCOCCOCCOCCOCCOCCOCCOCCNC(=O)c5cc(NC(=O)c6nc(NC(=O)c7cc(NC(=O)[C@@H](N)CCNC(=O)c8nc(NC(=O)CCNC(=O)c9cc(NC(=O)c%10nccn%10C)cn9C)cn8C)cn7C)cn6C)cn5C)cc4)cc23)c1` [Compound A-40], in assay [1], the “GM 09197 E min 48 Hr C Allele (%)” value was “A (A>90%)” and the IC50 was greater than 1 µM. In addition, in assay [4], the half-inhibitory concentration (IC50) is greater than 1 µM and the “Gm09197 Emin 48 hr T Allele (%)” value is “A (A>90%)”.
